Measurements as given in US7691904B2, “pH sensitive prodrugs of 2,6-diisopropylphenol” (Auspex Pharmaceuticals, Inc, priority 2003, dated 2010).

How the values were obtained:
Female mice = test: In-vivo induction of anesthesia (graded sedation level after IP injection)
Protocol: Prodrugs were formulated as aqueous isotonic solutions at pH 7.4 in sterile water before administration to animals. Female mice were obtained from Charles River Laboratories (Wilmington, Mass.). The volume of injection was set at […] and animals were dosed IP at 100 mg/kg, 125 mg/kg, 150 mg/kg and 200 mg/kg. The monitoring of distinguishable levels of sedation started immediately after an injection and was continued for a 2-h period post-injection. The sedation level was graded according to the behavioral and reflex activity of animals injected with progressively increasing doses of each compound. Animals were graded as alert and normal when there was no observable change in their behavior; alert with decreased motor activity when ataxia with some ability to walk was observed; and awake and recumbent when loss of righting reflex occurred. Animals reaching somnolence but retaining response to painful stimuli (toe or tail pinch) were graded as sedated with normal reflexes, whereas animals that lost response to painful stimuli were graded as sedated with decreased reflexes (anesthetic level of sedation). Death resulting from the overdose was also recorded as a last level.

[1] = pH stability in pH=4.1 sodium acetate buffer, analyzed by LC-MS; assay type: physicochemical; details: 100 mg in 10 mL pH=4.1 sodium acetate buffer, ambient temperature, 48 hours
Protocol: A solution was prepared by dissolving 100 mg of N-(2-Piperidin-1-yl-ethyl)-succinamic acid 2,6-diisopropylphenyl ester hydrochloride in 10 mL of pH=4.1 sodium acetate buffer. The buffer was prepared by adding NaOH to a 20% aqueous acetic acid solution until the desired pH was reached. The solution was incubated at ambient temperature and analyzed by LC-MS after 48 hours.

SMILES	Duration of anesthesia (Female mice; 150 mg/kg) [min]	End of anesthesia (time post injection, in parentheses) (Female mice; 150 mg/kg, time post injection) [min]	Full anesthesia (Female mice; 150 mg/kg, time post injection) [min]	Onset of sedation (Female mice; 150 mg/kg, time post injection) [min]	Duration of anesthesia (Female mice; 200 mg/kg) [min]	End of anesthesia (time post injection, in parentheses) (Female mice; 200 mg/kg, time post injection) [min]	Full anesthesia (Female mice; 200 mg/kg, time post injection) [min]	Onset of sedation (Female mice; 200 mg/kg, time post injection) [min]	Decomposition in solution [1]	Duration of anesthesia (Female mice; 100 mg/kg) [min]	Full anesthesia (Female mice; 100 mg/kg)	End of effect (time post injection, in parentheses) (Female mice; 100 mg/kg, time post injection) [min]	Onset of sedation (Female mice; 100 mg/kg, time post injection) [min]	Duration of sedation (Female mice; 125 mg/kg) [min]	Full anesthesia (Female mice; 125 mg/kg)	End of sedation (time post injection, in parentheses) (Female mice; 125 mg/kg, time post injection) [min]	Onset of sedation (Female mice; 125 mg/kg, time post injection) [min]
CC(C)c1cccc(C(C)C)c1OC(=O)CCC(=O)NCCN1CCCC1.Cl [N-(2-pyrrolidin-1-yl-ethyl)-succinamic acid 2,6-diisopropylphenyl ester hydrochloride]	10	14	4	2	21	25	4	2									
CC(C)c1cccc(C(C)C)c1OC(=O)CCC(=O)NCCN1CCCCC1.Cl [N-(2-piperidin-1-yl-ethyl)-succinamic acid 2,6-diisopropylphenyl ester hydrochloride]					12	16	5	2	No trace of decomposition	11	not reached	13	2	13	not reached	15	2
